In patent publication EP0499926B1, “2-Substituted quinolines, process for their preparation as well as their use in medicaments” (BAYER AG, priority 1991, dated 1992) one finds IC50 data, which are given here for four molecules.

This assay relates to 5-LO. The assay can be described thus: Lipoxygenase inhibition: release of leukotriene B4 (LTB4) from human polymorphonuclear leukocytes (PMN) after addition of substance and Ca ionophore, reverse phase HPLC. Type of assay: cell-based. To be noted: polymorphkernige Humanleukozyten (PMN), Ca-Ionophor. The source says:
Die pharmakologischen Wirkungen der erfindungsgemäßen Substanzen werden durch folgende Methode bestimmt:
Als Maß für die Lipoxyenase-Hemmung wurde die Freisetzung von Leukotrien B4 (LTB4) an polymorphkernigen Humanleukozyten (PMN) nach Zugabe von Substanzen und Ca-Ionophor mittels reverse phase HPLC nach Borgeat, P. et al., Proc. Nat. Acad. Sci, 76, 2148 -2152 (1979), bestimmt.
In der Tabelle 1 sind beispielhaft die nach diesem Test erzielten Werte einiger erfindungsgemäßer Verbindungen aufgeführt: Tabelle 1

The structures appear in SMILES notation.

In the case of `C=Cc1cc(C(C(=O)O)C2CCCC2)ccc1OCc1ccc2ccccc2n1` (stereo not shown) [Beispiel 41], the IC50 (commonly the concentration that gives 50% inhibition) turned out to be 560 nM.
As for `COC(=O)C(c1ccc(OCc2ccc3ccccc3n2)c(F)c1)C1CCCC1` (stereo not shown) [Beispiel 1, 2-[3-Fluor4-(chinolin-2-methoxy)phenyl]-2-cyclopentylessigsäuremethylester], 2500 nM corresponded to half-maximal inhibition (IC50).
In the case of `O=C(O)C(c1ccc(OCc2ccc3ccccc3n2)c(F)c1)C1CCCC1` (stereo not shown) [Beispiel 27, 2-[3-Fluor-4-(chinolin-2-yl-methoxy)phenyl]-2-cyclopentylessigsäure] it was 690 nM.
In the case of `O=C(O)C(c1ccc(OCc2ccc3ccccc3n2)c(-n2cccc2)c1)C1CCCCCC1` (stereo not shown) [Beispiel 40] it was 790 nM.
